Laboratory results taken from patent US7893284B2 (Sterix Limited, priority 2004, dated 2011).
Like-named read-outs stand apart in the source and are kept apart here.

Tests used:
MCF-7 cells = assay: Cell proliferation, microtiter plate assay (Cell Titer 96), MCF-7; type: cell-based
Description: The effect of drugs on the proliferation of cells was measured using a microtiter plate assay (Cell Titer 96 proliferation assay, Promega, Hampshire, UK).

Tubulin = assay: Inhibition of taxol-induced microtubule polymerization (turbidity at 350 nm); type: biochemical; conditions: 20 μM, tubulin 1 mg/ml, FIG. 3
Description: The ability of drugs to inhibit taxol-induced polymerisation of tubulin was measured by turbidity at 350 nm. Tubulin (Cryoskeleton Inc., Denver, Colo.), at a final concentration of 1 mg/ml was incubated at 32° C. in G-PEM buffer [80 mM piperazine-N,N′-bis (2-ethane sulfonic acid) sequisodium salt, 1 mM MgCl2, 1 mM EGTA and 1 mM GTP (pH 6.8)] in the presence of taxol with or without estrone derivatives [20 μM].
STX641 is thought to act as an anti-microtubule agent, i.e. to disrupt microtubule function. To show this, tubulin was incubated in the presence of taxol (a compound known to promote tubulin polymerisation). Taxol induced efficient in vitro microtubule assembly as reflected in the increase in turbidity as measured at 350 nm.

[1] = tested on: MCF-7 Breast Cancer Cells; assay: Flow cytometric cell cycle analysis, MCF-7; type: cell-based; conditions: 500 nM
Description: Flow cytometric cell cycle analysis was performed on 40% confluent populations of MCF-7s with 500 nM of compound.

[2] = tested on: human umbilical vein endothelial cells (HUVECs); assay: Tubule formation, Angiogenesis kit, co-culture of HUVECs and dermal fibroblasts; type: cell-based; conditions: 0.05 μM and 0.1 μM, FIG. 7
Description: The effects of drugs on tubule formation (measured as a marker of their anti-angiogenic potential) was assessed using an Angiogenesis kit (TCS-Cellworks Ltd (Bucks, UK). For this, human umbilical vein endothelial cells (HUVECs) were cultured in a 24-well plate within a matrix of human diploid fibroblasts of dermal origin. The co-cultured cells were incubated throughout the experiment at 37° C. under 5% CO2 in a humidified incubator. On day 1, the culture medium was removed and replaced with medium containing the drugs under investigation. On days 4, 7 and 9, the medium was replaced with fresh medium containing the drugs under investigation. On day 11, the cells were washed with PBS and 70% ethanol (1 ml) added to each well for 30 min to fix the cells. After fixation, the cells were washed with blocking buffer (1 ml PBS+1% bovine serum albumin, Sigma, UK) and stained with either von Willebrand's factor or CD31. The extent of tubule formation was quantified by manual scoring or by computer analysis. Images were captured using a Kodak DC120 digital camera. In addition, details of changes in tubule formation induced by drugs were also recorded by high definition scanning of plates with some of the scans being presented as Photoshop processed images.
In this assay, the ability of STX641 (and related compounds) to act as an inhibitor of angiogenesis was examined using a co-culture of HUVECs and dermal fibroblasts. In this system, the endothelial cells initially form small islands within the fibroblast matrix. They subsequently proliferate and enter a migratory phase during which they move through the matrix to form thread-like tubule structures. These coalesce to form a network of anastomosing tubules. In FIG. 5, for untreated (control) co-cultures of HUVECs and dermal fibroblasts, the thread-like nature of the extensive tubule network is clearly visible. […] In FIG. 6, plates have been recorded by high definition scanning and also processed to give pixalated images.

[3] = molecular target: T1, Placental Microsomal Steroid Sulphatase (Homo sapiens, UniProt P08842); assay: Inhibition of steroid sulphatase activity in placental microsomes (Protocol 2); type: biochemical
T1 construct: Sulphatase-positive human placenta from normal term pregnancies are thoroughly minced with scissors; from tissue; host or cells: human term placenta (2000 g supernatant of homogenate)
T1 sequence (P08842 22-583): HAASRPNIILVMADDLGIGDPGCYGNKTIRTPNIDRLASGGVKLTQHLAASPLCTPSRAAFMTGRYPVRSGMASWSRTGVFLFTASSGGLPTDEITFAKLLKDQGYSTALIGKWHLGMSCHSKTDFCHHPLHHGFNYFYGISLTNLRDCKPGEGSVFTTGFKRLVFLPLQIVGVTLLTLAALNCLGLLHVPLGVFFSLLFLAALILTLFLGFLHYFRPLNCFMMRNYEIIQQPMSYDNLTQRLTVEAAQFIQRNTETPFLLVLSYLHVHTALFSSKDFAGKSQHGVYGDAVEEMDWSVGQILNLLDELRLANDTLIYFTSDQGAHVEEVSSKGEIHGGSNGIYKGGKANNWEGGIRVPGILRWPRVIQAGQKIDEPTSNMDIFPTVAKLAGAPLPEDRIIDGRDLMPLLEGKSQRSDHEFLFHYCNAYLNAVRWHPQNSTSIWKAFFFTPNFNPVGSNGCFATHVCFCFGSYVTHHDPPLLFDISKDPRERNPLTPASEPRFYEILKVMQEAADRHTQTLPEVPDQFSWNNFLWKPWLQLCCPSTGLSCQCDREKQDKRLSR
Description: Assay for Determining STS Activity Using Placental Microsomes (Protocol 2)
Inhibition of Steroid Sulphatase Activity in Placental Microsomes
Sulphatase-positive human placenta from normal term pregnancies are thoroughly minced with scissors and washed once with cold phosphate buffer (pH 7.4, 50 mM) then re-suspended in cold phosphate buffer (5 ml/g tissue). Homogenisation is accomplished with an Ultra-Turrax homogeniser, using three 10 second bursts separated by 2 minute cooling periods in ice. Nuclei and cell debris are removed by centrifuging (4° C.) at 2000 g for 30 minutes and portions (2 ml) of the supernatant are stored at […] The protein concentration of the supernatants is determined by the method of Bradford (Anal. Biochem., 72, 248-254 (1976)).
. The mixture is shaken thoroughly for 30 seconds with toluene (5 ml). Experiments have shown that >90% [14C]oestrone and <0.1% [3H]oestrone-3-sulphate is removed from the aqueous phase by this treatment. A portion (2 ml) of the organic phase was removed, evaporated and the 3H and 14C content of the residue determined by scintillation spectrometry. The mass of oestrone-3-sulphate hydrolysed is calculated from the 3H counts obtained (corrected for the volumes of the medium and organic phase used, and for recovery of [14C]oestrone added) and the specific activity of the substrate.

[4] = Homo sapiens, MCF7, read-out: IC50 in μM for the growth inhibition of MCF-7 cells
[5] = read-out: IC50 in μM for the growth inhibition of MCF-7 cells

Row | Compound | IC50 (MCF-7 cells; [4]) [µM] | also measured
1 | CCOC(=O)/C=C1\CCC2C3CCc4cc(OS(N)(=O)=O)c(CC)cc4C3CC[C@]12C (stereo in doubt) [Compound 15, (2-Ethyl-13-methyl-3-sulfamoyloxy-6,7,8,9,11,12,13,14,15,16-decahydro-cyclopenta[a]phenanthren-17-ylidene)-acetic acid ethyl ester] | 1.85 | 
2 | CCOC(=O)C[C@H]1CCC2C3CCc4cc(O)c(CC)cc4C3CC[C@@]21C (stereo in doubt) [Compound 22, (2-Ethyl-3-hydroxy-13-methyl-7,8,9,11,12,13,14,15,16,17-decahydro-6H-cyclopenta[a]phenanthren-17-yl)-acetic acid ethyl ester] | 26.4 | 
3 | CCOC(=O)C[C@H]1CCC2C3CCc4cc(OS(N)(=O)=O)c(CC)cc4C3CC[C@@]21C (stereo in doubt) [Compound 23, (2-Ethyl-13-methyl-3-sulfamoyloxy-7,8,9,11,12,13,14,15,16,17-decahydro-6H-cyclopenta[a]phenanthren-17-yl)-acetic acid ethyl ester] | 4.19 | 
4 | CCc1cc2c(cc1O)CCC1C2CC[C@@]2(C)C1CC[C@@H]2CC#N (stereo in doubt) [Compound 27, (2-Ethyl-3-hydroxy-13-methyl-7,8,9,11,12,13,14,15,16,17-decahydro-6H-cyclopenta[a]phenanthren-17-yl)-acetonitrile] |  | inhibition of taxol-induced polymerisation of tubulin (Tubulin): effectively blocked tubulin assembly
5 | COc1cc2c(cc1O)CCC1C2CC[C@@]2(C)C1CC[C@@H]2CC#N (stereo in doubt) [Compound 32, (3-Hydroxy-2-methoxy-13-methyl-7,8,9,11,12,13,14,15,16,17-decahydro-6H-cyclopenta[a]phenanthren-17-yl)-acetonitrile] | 0.3 | G2/M arrest (cells in G2/M) ([1]; 8 h, control 16%): 27%; cells G2/M arrested ([1]; 24 h, control 28%): 18%; inhibition of taxol-induced polymerisation of tubulin (Tubulin): effectively blocked tubulin assembly
6 | CCOC(=O)/C=C1/CCC2C3CCc4cc(O)c(CC)cc4C3CC[C@]12C (some centres unmarked) [Compound 14a, Z- and E-(2-Ethyl-3-hydroxy-13-methyl-6,7,8,9,11,12,13,14,15,16-decahydro-cyclopenta[a]phenanthren-17-ylidene)acetic acid ethyl ester] | 30.6 | 
7 | CCOC(=O)/C=C1\CCC2C3CCc4cc(O)c(CC)cc4C3CC[C@]12C (some centres unmarked) [Compound 14b, Z- and E-(2-Ethyl-3-hydroxy-13-methyl-6,7,8,9,11,12,13,14,15,16-decahydro-cyclopenta[a]phenanthren-17-ylidene)acetic acid ethyl ester] | 31.1 | 
8 | CCc1cc2c(cc1O)CCC1C2CC[C@]2(C)/C(=C\CO)CCC12 (some centres unmarked) [Compound 17a, Z- and E-2-Ethyl-17-(2-hydroxy-ethylidene)-13-methyl-7,8,9,11,12,13,14,15,16,17-decahydro-6H-cyclopenta[a]phenanthren-3-ol] | 0.67 | 
9 | CCc1cc2c(cc1O)CCC1C2CC[C@]2(C)/C(=C/CO)CCC12 (some centres unmarked) [Compound 17b, Z- and E-2-Ethyl-17-(2-hydroxy-ethylidene)-13-methyl-7,8,9,11,12,13,14,15,16,17-decahydro-6H-cyclopenta[a]phenanthren-3-ol] | 0.77 | 
10 | CCc1cc2c(cc1O)CCC1C2CC[C@@]2(C)C1CC[C@@H]2CCO (some centres unmarked) [Compound 19, 2-Ethyl-17-(2-hydroxy-ethyl)-13-methyl-7,8,9,11,12,13,14,15,16,17-decahydro-6H-cyclopenta[a]phenanthren-3-ol] | 2.52 | 
11 | CCc1cc2c(cc1OS(N)(=O)=O)CCC1C2CC[C@@]2(C)C1CC[C@@H]2CCOS(N)(=O)=O (some centres unmarked) [Compound 20, Sulfamic acid 2-ethyl-13-methyl-17-(2-sulfamoyloxy-ethyl)-7,8,9,11,12,13,14,15,16,17-decahydro-6H-cyclopenta[a]phenanthren-3-yl ester] | 5.64 | 
12 | CCc1cc2c(cc1O)CCC1C2CC[C@@]2(C)C1CC[C@@H]2CC#N (some centres unmarked) [Compound 27, (2-Ethyl-3-hydroxy-13-methyl-7,8,9,11,12,13,14,15,16,17-decahydro-6H-cyclopenta[a]phenanthren-17-yl)-acetonitrile] | 3.24 | 
13 | CCc1cc2c(cc1OS(N)(=O)=O)CCC1C2CC[C@@]2(C)C1CC[C@@H]2CC#N (some centres unmarked) [Compound 28, Sulfamic acid 17-cyanomethyl-2-ethyl-13-methyl-7,8,9,11,12,13,14,15,16,17-decahydro-6H-cyclopenta[a]phenanthren-3-yl ester] |  | inhibition of tubule formation quantified by computer analysis [2]: completely inhibited tubule formation; inhibition of taxol-induced polymerisation of tubulin (Tubulin): effectively blocked tubulin assembly
14 | COc1cc2c(cc1O)CCC1C2CCC2(C)C(=CC#N)CCC12 (centres unmarked) [Compound 30, Z- and E-(3-Hydroxy-2-methoxy-13-methyl-6,7,8,9,11,12,13,14,15,16-decahydro-cyclopenta[a]phenanthren-17-ylidene)-acetonitrile] |  | IC50 (MCF-7 cells; [5]): 3.22 µM
15 | COc1cc2c(cc1O)CCC1C2CC[C@@]2(C)C1CC[C@@H]2NCCN(C)C (some centres unmarked) [Compound 36, 17-(2-Dimethylamino-ethylamino)-2-methoxy-13-methyl-7,8,9,11,12,13,14,15,16,17-decahydro-6H-cyclopenta[a]phenanthren-3-ol] | 3.25 | 
16 | COCCOC1CCC2C3CCc4cc(O)c(OC)cc4C3CCC12C (centres unmarked) [Compound 51, 2-Methoxy-17-(2-methoxy-ethoxy)-13-methyl-7,8,9,11,12,13,14,15,16,17-decahydro-6H-cyclopenta[a]phenanthren-3-ol] | 6.02 | 
17 | CCc1cc2c(cc1O)CC[C@@H]1[C@@H]2CC[C@]2(C)[C@@H](OS(C)(=O)=O)CC[C@@H]12 [Compound 59, 2-Ethyl-17-O-mesyl estradiol] |  | IC50 (MCF-7 cells; [5]): 5.58 µM
18 | CCc1cc2c(cc1OS(N)(=O)=O)CC[C@@H]1[C@@H]2CC[C@]2(C)[C@@H](OS(C)(=O)=O)CC[C@@H]12 [Compound 60, 2-Ethyl-3-O-sulfamoyl-17-O-mesyl estradiol] | 0.09 | IC50 [3]: > 10 µM
